# Assay results: article PMC10537105, “Derivatives Incorporating Acridine, Pyrrole, and Thiazolidine Rings as Promising Antitumor Agents” (Molecules, 2023)
# Key:
# MCF-7 = experiment: MTT assay, MCF-7 cells; assay type: cell-based, human; settings: Homo sapiens, MCF7, 72 h of incubation, read-out: IC50 values ± SD, MCF-7
# From the text: (§1) The impact of acridine spiro derivatives 6–10 (Figure 13) on the metabolic activity of various tumor cell lines HCT-116 (human colorectal carcinoma), Jurkat (human leukemia cells), HeLa (human cervical adenocarcinoma), MDA-MB-231, and MCF-7 (human breast adenocarcinoma), and normal cell lines COS-7 (monkey kidney cells) and BJ-5ta (skin fibroblasts) was investigated using the MTT assay. This assay measures the conversion of yellow 3-(4,5-dimethylthiazol-2-yl)-2,5-diphenyltetrazolium bromide (MTT) to insoluble purple formazan by metabolically active cells. The antiproliferative activities of the tested compounds were determined based on the results from the MTT assay, and the inhibitory concentration values (IC50) are presented in Table 5.
# (§2) The human cancer cell lines employed in this study were sourced from reputable institutions, including the American Type Culture Collection (ATCC; Manassas, VA, USA) and the European Collection of Authenticated Cell Cultures (ECACC, Salisbury, UK). Specifically, HeLa (93021013, human cervical adenocarcinoma), HCT116 (CCL-247TM, human colorectal carcinoma), and Jurkat (88042803, human leukemic T-cell lymphoma) were cultured in RPMI 1640 medium (Biosera, Kansas City, MO, USA). In contrast, MCF-7 (HTB-22TM, human breast adenocarcinoma, ER+), MDA-MB-231 (HTB-26TM, human breast adenocarcinoma, ER−), and COS-7 (CRL-1651TM, kidney fibroblasts) were nurtured in high-glucose Dulbecco’s Modified Eagle Medium (DMEM) supplemented with sodium pyruvate (Biosera). Furthermore, BJ-5ta (CRL-4001TM, human dermal fibroblasts) was cultured in a composite medium of high-glucose DMEM and M199 (4:1) (Biosera), supplemented with Hygromycin B (0.01 mg/mL; Merck, Darmstadt, Germany). All culture media were enriched with a 10% fetal bovine serum (FBS; Gibco, Thermo Scientific, Rockford, IL, USA) and an antibiotic/antimycotic solution (Merck) to ensure optimal growth conditions. The cells were meticulously maintained within a humidified environment containing 5% CO2 at 37 °C. Regular screenings for mycoplasma contamination were conducted using Hoechst 33342 staining (Merck), confirming the integrity of the cell lines.
# (§3) To assess the antiproliferative impact of the synthesized compounds 6–10, their half-maximal inhibitory concentration (IC50) and the MTT colorimetric assay were employed. MDA-MB-231 and MCF-7 cells were seeded into 96-well microplates (SARSTEDT, Nümbrecht, Germany) at a density of 5 × 10^3 cells per well. After 24 h of cell seeding, various concentrations (100, 50, and 10 µmol/L) of acridine derivatives 6–10 were introduced, alongside cisplatin (utilized as a reference) at concentrations of 5, 10, 20, 50, and 100 µmol/L. Subsequent to 24, 48, and 72 h of treatment, the cells in each well underwent incubation with MTT (5 mg/mL, Sigma-Aldrich Chemie, Steinheim, Germany) for 4 h at 37 °C in the dark. During this period, mitochondrial oxidoreductases metabolized MTT, forming insoluble formazan. Following this, 100 µL of SDS (10% […]) was added to dissolve the formazan crystals, and the cells were incubated for an additional 12 h. Absorbance at 540 nm was measured using the automated Cytation™ 3 Cell Imaging Multi-Mode Reader (Biotek, Winooski, VT, USA). Each test was performed in triplicate, and three independent experiments were conducted to ensure precision and reliability.
# MDA-MB-231 = experiment: MTT assay, MDA-MB-231 cells; assay type: cell-based, human; settings: Homo sapiens, MDA-MB-231, 72 h of incubation, read-out: IC50 values ± SD, MDA-MB-231
# From the text: as §1, §2, §3
# HeLa = experiment: MTT assay, HeLa cells; assay type: cell-based, human; settings: Homo sapiens, HeLa, 72 h of incubation, read-out: IC50 values ± SD, HeLa
# From the text: as §1, §2, §3
# HCT-116 = experiment: MTT assay, HCT-116 cells; assay type: cell-based, human; settings: Homo sapiens, HCT-116; MTT, 72 h of incubation; read-out: IC50 values ± SD, HCT-116
# From the text: as §1, §2, §3
# Jurkat = experiment: MTT assay, Jurkat cells; assay type: cell-based, human; settings: Homo sapiens, Jurkat; MTT, 72 h of incubation; read-out: IC50 values ± SD, Jurkat
# From the text: as §1, §2, §3
# COS-7 = experiment: MTT assay, COS-7 normal cells; assay type: cell-based, monkey; settings: Primates, COS-7, 72 h of incubation, normal cell line, read-out: IC50 values ± SD, COS-7
# From the text: as §1, §2, §3
# BJ-5ta = experiment: MTT assay, BJ-5ta normal fibroblasts; assay type: cell-based, human; settings: Homo sapiens, Fibroblast, 72 h of incubation, normal cell line, read-out: IC50 values ± SD, BJ-5ta
# From the text: as §1, §2, §3
SMILES,IC50 (MCF-7),IC50 (MDA-MB-231),IC50 (HeLa),IC50 (HCT-116),IC50 (Jurkat),IC50 (COS-7),IC50 (BJ-5ta),melting point
"COc1ccc(N2C(=O)C(C)S/C2=N\N2C(=O)C(C#N)=CC23c2ccccc2Nc2ccccc23)cc1 (stereo not shown) [9b, 1′-{[(2Z)-3-(4-Methoxyphenyl)-5-methyl-4-oxo-1,3-thiazolidin-2-ylidene]amino}-5′-oxo-1′,5′-dihydro-10H-spiro[acridine-9,2′-pyrrole]-4′-carbonitrile]",> 100 µM,> 100 µM,> 100 µM,> 100 µM,> 100 µM,> 100 µM,> 100 µM,219 to 224 °C (dec.)
"COc1cccc(N2C(=O)CS/C2=N\N2C(=O)C(C#N)=CC23c2ccccc2Nc2ccccc23)c1 [7c, 1′-{[(2Z)-3-(3-Methoxyphenyl)-4-oxo-1,3-thiazolidin-2-ylidene]amino}-5′-oxo-1′,5′-dihydro-10H-spiro[acridine-9,2′-pyrrole]-4′-carbonitrile]",45.14 ± 0.04 µM,39.7 ± 2.4 µM,54 ± 0.72 µM,24.4 ± 1.31 µM,22.1 ± 0.43 µM,55.2 ± 5.38 µM,38 ± 1.44 µM,217 to 220 °C (dec.)
"COc1cccc(N2C(=O)C(C)S/C2=N\N2C(=O)C(C#N)=CC23c2ccccc2Nc2ccccc23)c1 (stereo not shown) [9c, 1′-{[(2Z)-3-(3-Methoxyphenyl)-5-methyl-4-oxo-1,3-thiazolidin-2-ylidene]amino}-5′-oxo-1′,5′-dihydro-10H-spiro[acridine-9,2′-pyrrole]-4′-carbonitrile]",65.3 ± 1.89 µM,40.8 ± 0.84 µM,44 ± 5.88 µM,32.7 ± 1.51 µM,25.8 ± 2.58 µM,> 100 µM,32.7 ± 0.47 µM,237 to 240 °C (dec.)
"CCOC(=O)/C=C1\S/C(=N\N2C(=O)C(C#N)=CC23c2ccccc2Nc2ccccc23)N(c2ccc(F)cc2)C1=O [8d, Ethyl 2-[(2Z,5Z)-2-({4′-cyano-5′-oxo-1′,5′-dihydro-10H-spiro[acridine-9,2′-pyrrol]-1′-yl}imino)-3-(4-fluorophenyl)-4-oxo-1,3-thiazolidin-5-ylidene]acetate]",8.52 ± 0.79 µM,7.85 ± 0.97 µM,5.97 ± 0.15 µM,5.46 ± 0.02 µM,5.64 ± 0.09 µM,9.45 ± 0.24 µM,7.32 ± 0.35 µM,269 to 272 °C (dec.)
"CCCC1S/C(=N\N2C(=O)C(C#N)=CC23c2ccccc2Nc2ccccc23)N(c2ccccc2)C1=O (stereo not shown) [10a, 5′-Oxo-1′-{[(2Z)-4-oxo-3-phenyl-5-propyl-1,3-thiazolidin-2-ylidene]amino}-1′,5′-dihydro-10H-spiro[acridine-9,2′-pyrrole]-4′-carbonitrile]",> 100 µM,> 100 µM,> 100 µM,> 100 µM,> 100 µM,> 100 µM,> 100 µM,238 to 240 °C (dec.)
"N#CC1=CC2(c3ccccc3Nc3ccccc32)N(/N=C2\SCC(=O)N2c2ccccc2)C1=O [7a, 5′-Oxo-1′-{[(2Z)-4-oxo-3-phenyl-1,3-thiazolidin-2-ylidene]amino}-1′,5′-dihydro-10H-spiro[acridine-9,2′-pyrrole]-4′-carbonitrile]",21.62 ± 0.1 µM,> 100 µM,51.2 ± 3.32 µM,41.3 ± 2.3 µM,> 100 µM,> 100 µM,> 100 µM,241 to 243 °C (dec.)
"CCCC1S/C(=N\N2C(=O)C(C#N)=CC23c2ccccc2Nc2ccccc23)N(c2ccc(OC)cc2)C1=O (stereo not shown) [10b, 1′-{[(2Z)-3-(4-Methoxyphenyl)-4-oxo-5-propyl-1,3-thiazolidin-2-ylidene]amino}-5′-oxo-1′,5′-dihydro-10H-spiro[acridine-9,2′-pyrrole]-4′-carbonitrile]",> 100 µM,> 100 µM,> 100 µM,> 100 µM,> 100 µM,> 100 µM,> 100 µM,247 to 250 °C (dec.)
"CC1S/C(=N\N2C(=O)C(C#N)=CC23c2ccccc2Nc2ccccc23)N(c2ccc(F)cc2)C1=O (stereo not shown) [9d, 1′-{[(2Z)-3-(4-Fluorophenyl)-5-methyl-4-oxo-1,3-thiazolidin-2-ylidene]amino}-5′-oxo-1′,5′-dihydro-10H-spiro[acridine-9,2′-pyrrole]-4′-carbonitrile]",> 100 µM,> 100 µM,> 100 µM,> 100 µM,> 100 µM,> 100 µM,> 100 µM,235 to 239 °C (dec.)
"CC1S/C(=N\N2C(=O)C(C#N)=CC23c2ccccc2Nc2ccccc23)N(c2ccccc2)C1=O (stereo not shown) [9a, 1′-{[(2Z)-5-Methyl-4-oxo-3-phenyl-1,3-thiazolidin-2-ylidene]amino}-5′-oxo-1′,5′-dihydro-10H-spiro[acridine-9,2′-pyrrole]-4′-carbonitrile]",> 100 µM,> 100 µM,> 100 µM,> 100 µM,> 100 µM,> 100 µM,> 100 µM,245 to 249 °C (dec.)
"N#CC1=CC2(c3ccccc3Nc3ccccc32)N(/N=C2\SCC(=O)N2c2ccc(F)cc2)C1=O [7d, 1′-{[(2Z)-3-(4-Fluorophenyl)-4-oxo-1,3-thiazolidin-2-ylidene]amino}-5′-oxo-1′,5′-dihydro-10H-spiro[acridine-9,2′-pyrrole]-4′-carbonitrile]",32.5 ± 6.5 µM,> 100 µM,62.5 ± 14 µM,46.6 ± 2.66 µM,> 100 µM,> 100 µM,> 100 µM,249 to 252 °C (dec.)
"N#CC1=CC2(c3ccccc3Nc3ccccc32)N(NC(=S)Nc2ccccc2)C1=O [6a, 3-{4′-Cyano-5′-oxo-1′,5′-dihydro-10H-spiro[acridine-9,2′-pyrrol]-1′-yl}-1-phenylthiourea]",> 100 µM,> 100 µM,67.2 ± 8.65 µM,14.3 ± 5.09 µM,11.6 ± 4.3 µM,> 100 µM,92.2 ± 1.6 µM,194 to 195 °C (dec.)
